Source: US20240016748A1, “DIRECT DELIVERY OF VITAMINS TO INHIBIT MICROBIAL PATHOGENS” (DSM IP ASSETS B.V., priority 2020, published 2024)

How the values were obtained:
[1] = tested on: adherent-invasive E. coli (AIEC); experiment: Short-term pathogen challenge test, AIEC; assay type: cell-based, Escherichia coli; details: positive control, 125 ppm; 48 h colonic incubation
[2] = tested on: Salmonella enteritidis; experiment: Short-term pathogen challenge test, Salmonella enteritidis; assay type: cell-based; details: positive control, 125 ppm; 48 h colonic incubation

## O=C(O)c1cn(C2CC2)c2cc(N3CCNCC3)c(F)cc2c1=O [ciprofloxacin]
[1]
  abundance of AIEC: decreased abundance of AIEC
[2]
  abundance of Salmonella enteritidis: strongly decreased abundance of Salmonella enteritidis
